# Measurements reported in ChEMBL document CHEMBL6178021, “Optimization of Tambjamines Active against Multiple Stages of Malaria Parasites” (J Med Chem, 2025).
# pIC50: −log10 of the molar value.
# Key:
# in vitro [1] = settings: human, liver microsomes
# in vitro [2] = settings: mouse, liver microsomes
# MDR1 (human) [3] = assay: Apparent permeability across apical to basolateral side in MDCK transfected with human MDR1 cells incubated for 1 hr by LC-MS analysis; settings: dog, MDCK-MDR1
# MDR1 (human) [4] = assay: Efflux ratio, ratio of apparent permeability across apical to basolateral side over basolateral to apical side in MDCK transfected with human MDR1 cells incubated for 1 hr by LC-MS analysis; settings: dog
# Plasmodium falciparum [5] = assay: Antiplasmodial activity against asexual blood-stage Plasmodium falciparum Tm90-C2B using 2% haematocrit and 0.2% parasitemia assessed as reduction in fluorescence measured after 72 hrs by Malaria SYBR Green I-based Fluorescence (MSF) assay; format: functional, organism-based
# [6] = Metabolic stability in human liver microsomes assessed as half life measured up to 60 mins by LC/MS analysis; format: ADME, Microsome
# Plasmodium falciparum [7] = assay: microbe, parasite or virus in culture; settings: D6, 72 h
# Description: Antiplasmodial activity against asexual blood-stage Plasmodium falciparum D6 using 2% haematocrit and 0.2% parasitemia assessed as reduction in fluorescence measured after 72 hrs by Malaria SYBR Green I-based Fluorescence (MSF) assay
# [8] = Metabolic stability in mouse liver microsomes assessed as half life measured up to 60 mins by LC/MS analysis; format: ADME, Microsome
# MDR1 (human) [9] = assay: Apparent permeability across basolateral to apical side in MDCK transfected with human MDR1 cells incubated for 1 hr by LC-MS analysis; settings: dog, MDCK-MDR1
# Plasmodium falciparum [10] = assay: microbe, parasite or virus in culture; settings: Dd2, 72 h
# Description: Antiplasmodial activity against asexual blood-stage Plasmodium falciparum Dd2 using 2% haematocrit and 0.2% parasitemia assessed as reduction in fluorescence measured after 72 hrs by Malaria SYBR Green I-based Fluorescence (MSF) assay
# [11] = Solubility of the compound in potassium phosphate buffer at pH 7.4 by UV-vis spectroscopy; settings: buffer
# in vitro [12] = settings: human
# Description: Selectivity index, ratio of IC50 for cytotoxicity against human HepG2 cells to IC50 for antiplasmodial activity against asexual blood-stage Plasmodium falciparum D6
# HepG2 = assay: Cytotoxicity against human HepG2 cells assessed as cell viability measured after 48 hrs by MTT assay; format: toxicity, cell-based; settings: hepg2
# Plasmodium yoelii [13] = assay: Antimalarial activity against erythrocytic Plasmodium yoelii MRA-428 infected in CF1 mouse assessed as reduction in parasitemia at 10 mg/kg, po once daily for 4 days measured on day 5; format: functional; parameters: scale not given: the % may be the effect or the level left; settings: time 4 day
# Plasmodium yoelii [14] = assay: Antimalarial activity against erythrocytic Plasmodium yoelii MRA-428 infected in CF1 mouse assessed as reduction in parasitemia at 25 mg/kg, po once daily for 4 days measured on day 5; format: functional; parameters: scale not given: the % may be the effect or the level left; settings: time 4 day
# Plasmodium yoelii [15] = assay: Antimalarial activity against erythrocytic Plasmodium yoelii MRA-428 infected in CF1 mouse assessed as cured mouse at 50 mg/kg, po once daily for 4 days measured on day 28 day; format: functional, organism-based; settings: time 4.0 day
SMILES,microsomal CLint at 1 h (in vitro [1]) [µL/min/mg],microsomal CLint at 1 h (in vitro [2]) [µL/min/mg],Papp A→B at 1 h (MDR1 (human) [3]) [×10⁻⁶ cm/s],efflux ratio at 1 h (MDR1 (human) [4]),pIC50 (Plasmodium falciparum [5]),half-life [6] [min],pIC50 (Plasmodium falciparum [7]),half-life [8] [min],Papp B→A at 1 h (MDR1 (human) [9]) [×10⁻⁶ cm/s],pIC50 (Plasmodium falciparum [10]),solubility [11] [µM],selectivity ratio (in vitro [12]),pIC50 (HepG2),Activity (Plasmodium yoelii [13]) [%],Activity (Plasmodium yoelii [14]) [%],Activity (Plasmodium yoelii [15])
CCC1=C(CC)/C(=C/NC2CCCCC2)N=C1c1ccc(Cl)[nH]1,8.01,0.67,0.71,0.17,6.69,> 60,6.41,> 60,0.12,6.63,22.6,–,–,–,–,–
CCC1=C(CC)/C(=C/NC23C[C@H]4C[C@@H](C2)C[C@@H](C3)C4)N=C1c1ccccc1O,–,–,–,–,6.51,–,6.89,–,–,6.73,–,93,4.92,–,–,–
CCC1=C(CC)/C(=C/NC23C[C@H]4C[C@@H](C2)C[C@@H](C3)C4)N=C1c1ccc(-c2ccc(OC)cc2)[nH]1,114,110,0.03,0.53,8.10,12.2,8.05,12.1,0.016,8.27,12.4,113,6.00,11.5,–,–
COc1ccc(C2=C(c3ccc(OC)cc3)/C(=C/NC34C[C@H]5C[C@@H](C3)C[C@@H](C4)C5)N=C2c2ccc[nH]2)cc1,26.6,12.2,0.059,0.079,7.82,52.1,–,> 60,0.005,7.82,10.7,496,5.10,–,–,–
C(/NC12C[C@H]3C[C@@H](C1)C[C@@H](C2)C3)=C1/N=C(c2ccc[nH]2)C2=C1OCCO2,118,49.8,0.14,6.1,8.41,11.7,–,27.9,0.85,8.08,114,444,5.42,0,–,–
CCC1=C(CC)/C(=C/NC23C[C@H]4C[C@@H](C2)C[C@@H](C3)C4)N=C1c1ccc(Cl)[nH]1,–,–,0.34,0.22,8.14,> 60,7.85,> 60,0.074,8.05,40,315,5.35,23.2,90.7,–
CCC1=C(CC)/C(=C/NC2CCCCCC2)N=C1c1ccc(Cl)[nH]1,22.2,8.33,0.19,0.4,6.74,> 60,6.34,> 60,0.076,6.60,14.4,–,–,–,–,–
CCC1=C(CC)/C(=C/NC2CCCCC2)N=C1c1cc2cc(Cl)ccc2[nH]1,56.5,19.7,0.002,0.59,6.33,24.5,6.27,> 60,0.001,6.33,30.7,–,–,–,–,–
CCC1=C(CC)/C(=C/NC2CCCCCC2)N=C1c1ccc(Br)[nH]1,13,23.7,0.004,0.26,6.89,> 60,6.55,58.5,0.001,6.65,< 3.125,–,–,–,–,–
CCC1=C(CC)/C(=C/N[C@H]2CC[C@H](C(=O)OC)CC2)N=C1c1ccc[nH]1,96.4,110,0.088,8.4,6.39,14.4,6.44,12.6,0.74,6.52,121,–,–,–,–,Not active; None Of The Mouse Cured Out Of Four Tested
CCC1=C(CC)/C(=C/NC23C[C@H]4C[C@@H](C2)C[C@@H](C3)C4)N=C1c1ccc(-c2ccccc2)[nH]1,29.5,91.8,2.85,–,8.74,46.9,8.59,15.1,0.002,8.88,< 3.125,800,5.69,0,–,–
CCC1=C(CC)/C(=C/NC23C[C@H]4C[C@@H](C2)C[C@@H](C3)C4)N=C1c1ccc(Cc2ccc(OC)cc2)[nH]1,11.7,4.57,0.04,0.21,8.40,> 60,8.68,> 60,0.008,9.06,26.2,775,5.79,0,–,–
